In patent US6956040B2, “Oxazolidinone piperazinyl derivatives as potential antimicrobials” (Ranbaxy Laboratories Limited, priority 2001, dated 2005):
In brackets after ≈: the same amount, converted by molar mass. Where two headings read alike, the source gives them in different places.

Tests used:
MRSA 562 [1] = assay: MIC, agar incorporation method; type: cell-based, Staphylococcus aureus
Procedure: (§1) The compounds of the invention display antibacterial activity when tested by the agar incorporation method. The following minimum inhibitory concentrations (μg/ml) were obtained for representative compounds of the invention which are given below in the following tables.
(§2) Briefly, the compounds were dissolved in DMSO and doubling dilution of the compounds were incorporated into Meuller Hilton agar before solidification. Inoculum was prepared by suspending 4 to 5 colonies into 5 ml of normal saline solution and adjusting the turbidity to 0.5 Macfarland turbidity standard tables (1.5×10^8 CFU/ml), after appropriate dilutions, 10^4 CFU/spot was transfered into the surface of dried plate and incubated for 18 hours (24 hours for MRSN studies). The concentration showing no growth of the inoculated culture was recorded as the MIC. Appropriate ATCC standard strains were simultaneously tested and result recorded only when the MIC's against standard antibiotics were within the acceptable range.

MRSA 562 [2] = assay: In vivo activity against MRSA 562 (ED50); set-up: species or system Staphylococcus aureus
MRSA 33 = assay: MIC, agar incorporation method; type: cell-based, Staphylococcus aureus
Procedure: as §1, §2

E. faecalis 29212 = assay: MIC, agar incorporation method; type: cell-based, Enterococcus faecalis
Source text: as §1
(§3) • 1) S.aureus ATCC 25923—Staphylococus aureus ATCC 25923 • 2) MRSA 15187—Methicillin Resistant Staphylococcus aureus • 3) Ent. faecalis ATCC 29212—Enterococcus faecalis ATCC 29212 • 4) Ent. faecium 6A—Enterococcus faecium 6A Van®, Cipro® • 5) Strep. pne. ATCC 6303—Streptococcus pneumoniae ATCC 6303 • 6) Strep. pyog. ATCC 19615—Streptococcus pyogenes • 7) S. epidermidis—Staphylococcus epidermidis ATCC 12228
as §2

VRE 6A = assay: MIC, agar incorporation method; type: cell-based, Enterococcus faecium
Source text: as §1, §3, §2

S. pyogenes 19615 = assay: MIC, agar incorporation method; type: cell-based, Streptococcus pyogenes
Source text: as §1, §3, §2

S. aureus 25923 = assay: MIC, agar incorporation method; type: cell-based, Staphylococcus aureus
Source text: as §1, §3, §2

MRSA 15187 = assay: MIC, agar incorporation method; type: cell-based, Staphylococcus aureus
Source text: as §1, §3, §2

S. pneum 6303 = assay: MIC, agar incorporation method; type: cell-based, Streptococcus pneumoniae
Source text: as §1, §3, §2

S. pneum AB 34 = assay: MIC, agar incorporation method; type: cell-based, Streptococcus pneumoniae
Procedure: as §1, §2

[3] = Changes in MIC under different conditions: Agar MIC; type: cell-based; details: strain not given
Procedure: as §1, §2

G+ve = assay: Summary of in vitro activity (MIC) against G+ve bacteria; type: cell-based; details: for MIC: read-out: Geometric Mean of in vitro activity (MIC)
Procedure: as §1, §2

[4] = Changes in MIC under different conditions: Broth MIC; type: cell-based; details: strain not given
E. faecalis = assay: Summary of in vitro activity (MIC) against E. faecalis; type: cell-based, Enterococcus faecalis; details: Enterococcus faecalis; for MIC: read-out: Geometric Mean of in vitro activity (MIC)
Procedure: as §1, §2

S. pneumoniae = assay: Summary of in vitro activity (MIC) against S. pneumoniae; type: cell-based, Streptococcus pneumoniae; details: Streptococcus pneumoniae; for MIC: read-out: Geometric Mean of in vitro activity (MIC)
Procedure: as §1, §2

S. aureus = assay: Summary of in vitro activity (MIC) against S. aureus; type: cell-based, Staphylococcus aureus; details: Staphylococcus aureus; for MIC: read-out: Geometric Mean of in vitro activity (MIC)
Procedure: as §1, §2

For `CC(=O)NC[C@H]1CN(c2ccc(N3CCN(Cc4ccc(NC=O)o4)CC3)c(F)c2)C(=O)O1` [Compound No. 67], the “MIC” value (MRSA 562 [1]; MRSA 562, Table 5) was 2 µg/mL (≈ 4.35 µM) and the “ED50 (mg/kg body weight) PO” value (MRSA 562 [2]) was >25 mg/kg body weight.

With `CC(=O)NC[C@H]1CN(c2ccc(N3CC4C(C3)C4N(C)C(=O)Cc3cccs3)c(F)c2)C(=O)O1` (stereo partly drawn) [Compound No. 71, (S)-N-[[3-[3-Fluoro[4-[3-(1α, 5α, 6α)-6-[N-(2-thiopheneacetyl)-N-methyl]amino]-3-azabicyclo-[3.1.0]hexane]phenyl]-2-oxo-5-oxazolidinyl]methyl]acetamide] the MIC (MRSA 33; MRSA 33, agar incorporation) was 4 µg/mL (≈ 8.22 µM), the “MIC” value (MRSA 562 [1]; MRSA 562, Table 5) was 4 µg/mL (≈ 8.22 µM) and the MIC (E. faecalis 29212; E. faecalis 29212, agar incorporation) was 4 µg/mL (≈ 8.22 µM). The MIC (VRE 6A; VRE 6A, agar incorporation) was 4 µg/mL (≈ 8.22 µM), the “ED50 (mg/kg body weight) PO” value (MRSA 562 [2]) was >25 mg/kg body weight and the MIC (S. pyogenes 19615; S. pyogenes 19615, agar incorporation) was 2 µg/mL (≈ 4.11 µM). It also gave an MIC (S. aureus 25923; S. aureus 25923, agar incorporation) of 4 µg/mL (≈ 8.22 µM), an MIC (MRSA 15187; MRSA 15187, agar incorporation) of 4 µg/mL (≈ 8.22 µM) and an MIC (S. pneum 6303; S. pneum 6303, agar incorporation) of 4 µg/mL (≈ 8.22 µM). It also gave an MIC (S. pneum AB 34; S. pneum AB 34, agar incorporation) of 4 µg/mL (≈ 8.22 µM).

In the case of `CC(=O)NC[C@H]1CN(c2ccc(N3CCOCC3)c(F)c2)C(=O)O1` [Linezolid, reference compound], the MIC (MRSA 33; Staphylococcus aureus, MRSA 33, agar incorporation, read-out: MIC) is reported as 2 µg/mL (≈ 5.93 µM), the “MIC” value (MRSA 562 [1]; MRSA 562, Table 5) is reported as 2 µg/mL (≈ 5.93 µM) and the MIC (MRSA 562 [1]; Staphylococcus aureus, MRSA 562, agar incorporation, Table 1, read-out: MIC) is reported as 2 µg/mL (≈ 5.93 µM). For the same molecule, the MIC (E. faecalis 29212; Enterococcus faecalis, E. faecalis 29212, agar incorporation, read-out: MIC) was 2 µg/mL (≈ 5.93 µM), the “Agar MIC” value [3] was 2 µg/mL and the MIC50 (G+ve; G+ve, Number 49, read-out: MIC50) was 2 µg/mL (≈ 5.93 µM). The MIC90 (G+ve; G+ve, Number 49, read-out: MIC90) was 4 µg/mL (≈ 11.9 µM), the MIC (G+ve; Gram +ve) was 1.25 µg/mL (≈ 3.71 µM) and the “Broth MIC +50% Sheep serum” value [4] was 2 µg/mL. The “Broth MIC Normal MH broth” value [4] was 1 µg/mL, the MIC50 (E. faecalis; E. faecalis, Number 7, read-out: MIC50) was 4 µg/mL (≈ 11.9 µM) and the MIC90 (E. faecalis; E. faecalis, Number 7, read-out: MIC90) was 16 µg/mL (≈ 47.4 µM). It also gave an MIC (E. faecalis; E. faecalis) of 4 µg/mL (≈ 11.9 µM), an MIC (VRE 6A; Enterococcus, VRE 6A, agar incorporation, read-out: MIC) of 2 µg/mL (≈ 5.93 µM) and an MIC50 (S. pneumoniae; S. pneumoniae, Number 19, read-out: MIC50) of 0.5 µg/mL (≈ 1.48 µM). For the same molecule, the MIC90 (S. pneumoniae; S. pneumoniae, Number 19, read-out: MIC90) was 2 µg/mL (≈ 5.93 µM), the MIC (S. pneumoniae; S. pneumoniae) was 0.6 µg/mL (≈ 1.78 µM) and the MIC (S. pyogenes 19615; Streptococcus pyogenes, S. pyogenes 19615, agar incorporation, read-out: MIC) was 2 µg/mL (≈ 5.93 µM). It also gave an MIC50 (S. aureus; S. aureus, Number 8, read-out: MIC50) of 2 µg/mL (≈ 5.93 µM), an MIC90 (S. aureus; S. aureus, Number 8, read-out: MIC90) of 4 µg/mL (≈ 11.9 µM) and an MIC (S. aureus; S. aureus) of 2.38 µg/mL (≈ 7.05 µM). The MIC (S. aureus 25923; Staphylococcus aureus, S. aureus 25923, agar incorporation, read-out: MIC) was 2 µg/mL (≈ 5.93 µM), the MIC (MRSA 15187; Staphylococcus aureus, MRSA 15187, agar incorporation, read-out: MIC) was 1 µg/mL (≈ 2.96 µM) and the MIC (S. pneum 6303; Streptococcus pneumoniae, S. pneum 6303, agar incorporation, read-out: MIC) was 2 µg/mL (≈ 5.93 µM). For the same molecule, the MIC (S. pneum AB 34; Streptococcus pneumoniae, AB34, S. pneum AB 34, agar incorporation, read-out: MIC) was 4 µg/mL (≈ 11.9 µM).

With `CN[C@H](CC(C)C)C(=O)N[C@H]1C(=O)N[C@@H](CC(N)=O)C(=O)N[C@H]2C(=O)N[C@H]3C(=O)N[C@H](C(=O)N[C@H](C(=O)O)c4cc(O)cc(O)c4-c4cc3ccc4O)[C@H](O)c3ccc(c(Cl)c3)Oc3cc2cc(c3O[C@@H]2O[C@H](CO)[C@@H](O)[C@H](O)[C@H]2O[C@H]2C[C@](C)(N)[C@H](O)[C@H](C)O2)Oc2ccc(cc2Cl)[C@H]1O` [Vancomycin, reference compound] the MIC (MRSA 33; Staphylococcus aureus, MRSA) was 0.5 µg/mL (≈ 0.345 µM), the “MIC” value (MRSA 562 [1]; MRSA 562, Table 5) was 0.5 µg/mL (≈ 0.345 µM) and the MIC (MRSA 562 [1]; Staphylococcus aureus, MRSA) was 0.5 µg/mL (≈ 0.345 µM). The MIC (E. faecalis 29212; Enterococcus faecalis, 29212) was 4 µg/mL (≈ 2.76 µM), the “Agar MIC” value [3] was 1 µg/mL and the MIC50 (G+ve) was 0.5 µg/mL (≈ 0.345 µM). For the same molecule, the MIC90 (G+ve) was 16 µg/mL (≈ 11 µM), the MIC (G+ve) was 0.93 µg/mL (≈ 0.642 µM) and the “Broth MIC +50% Sheep serum” value [4] was 1 µg/mL. For the same molecule, the “Broth MIC Normal MH broth” value [4] was 1 µg/mL, the MIC50 (E. faecalis) was 16 µg/mL (≈ 11 µM) and the MIC90 (E. faecalis) was 16 µg/mL (≈ 11 µM). The MIC (E. faecalis) was 9.75 µg/mL (≈ 6.73 µM), the MIC (VRE 6A; Enterococcus, VRE) was > 16 µg/mL and the MIC50 (S. pneumoniae) was 0.5 µg/mL (≈ 0.345 µM). It also gave an MIC90 (S. pneumoniae) of 0.5 µg/mL (≈ 0.345 µM), an MIC (S. pneumoniae) of 0.39 µg/mL (≈ 0.269 µM) and an MIC (S. pyogenes 19615; Streptococcus pyogenes, 19615) of 0.5 µg/mL (≈ 0.345 µM). For the same molecule, the MIC50 (S. aureus) was 1 µg/mL (≈ 0.69 µM), the MIC90 (S. aureus) was 1 µg/mL (≈ 0.69 µM) and the MIC (S. aureus) was 1 µg/mL (≈ 0.69 µM). For the same molecule, the MIC (S. aureus 25923; Staphylococcus aureus, 25923) was 1 µg/mL (≈ 0.69 µM), the MIC (MRSA 15187; Staphylococcus aureus, MRSA) was 0.5 µg/mL (≈ 0.345 µM) and the MIC (S. pneum 6303; Streptococcus pneumoniae, 6303) was 0.5 µg/mL (≈ 0.345 µM). The MIC (S. pneum AB 34; Streptococcus pneumoniae, AB34) was 0.25 µg/mL (≈ 0.173 µM).
